Source: a compilation of properties of binary mixtures (doi:10.1016/j.molliq.2005.06.001)

Assay: xn = mol fraction of the nth substance listed
Conditions: 298 K, 101 kPa

CCCn1cc[n+](C)c1.[Br-] + CC1COC(=O)O1
Conditions	electrical conductivity [S/m]
x1 = 0.004	0.09
x2 = 0	0.03
x2 = 0.19	0.07
x2 = 0.27	0.09
x2 = 0.38	0.15
x2 = 0.46	0.26
x2 = 0.49	0.26
x2 = 0.55	0.42
x2 = 0.61	0.47
x2 = 0.76	0.59
x2 = 0.82	0.69
x2 = 0.89	0.73
x2 = 0.93	0.63
x2 = 0.96	0.49

CC[n+]1ccn(C)c1.F[B-](F)(F)F + CC1COC(=O)O1
Conditions	electrical conductivity [S/m]
x1 = 0.001	0.05
x2 = 0	1.39
x2 = 0.37	1.73
x2 = 0.55	1.85
x2 = 0.65	1.87
x2 = 0.75	1.8
x2 = 0.95	0.99

CNC=O + CC[n+]1ccn(C)c1.F[B-](F)(F)F
Conditions	electrical conductivity [S/m]
x1 = 0.05	1.59
x1 = 0.11	1.79
x1 = 0.31	2.26
x1 = 0.57	2.97
x1 = 0.72	3.15
x1 = 0.78	3.26
x1 = 0.86	3.05
x1 = 0.91	2.62
x2 = 0.001	0.34

Cn1ccnc1 + CC[n+]1ccn(C)c1.F[B-](F)(F)F
Conditions	electrical conductivity [S/m]
x1 = 0.1	1.67
x1 = 0.19	1.72
x1 = 0.31	1.83
x1 = 0.41	1.91
x1 = 0.51	2.01
x1 = 0.61	2.11
x1 = 0.7	2.15
x1 = 0.8	2.12
x1 = 0.85	1.85
x1 = 0.9	1.7
x1 = 0.95	1.18
x2 = 0.003	0.14

CCCn1cc[n+](C)c1.[Br-] + O
Conditions	electrical conductivity [S/m]
x1 = 0.0002	0.16
x2 = 0	0.03
x2 = 0.22	0.155
x2 = 0.36	0.46
x2 = 0.51	1.22
x2 = 0.79	6.23
x2 = 0.96	8.92

CC[n+]1ccn(C)c1.F[B-](F)(F)F + O
Conditions	electrical conductivity [S/m]
x1 = 0.0001	0.08
x1 = 0.01	4.13
x2 = 0	1.39
x2 = 0.16	2.04
x2 = 0.34	2.92
x2 = 0.47	4.11
x2 = 0.66	6.17
x2 = 0.9	9.28
x2 = 0.92	8.78
x2 = 0.95	8.32
x2 = 0.97	6.32
